Reference: EP4745138A1, “THIO-GLUTARIMIDO ISOINDOLINONE DERIVATIVE, BIFUNCTIONAL PROTEIN DEGRADER CONTAINING SAME, AND USES THEREOF” (Gluetacs Therapeutics (Shanghai) Co., Ltd., priority 2023, dated 2025)
Read-outs that look alike come from different tables or passages of the source.

How the values were obtained:
CFPAC-1 = assay: Tumor cell proliferation inhibition (CellTiter-Meiluncell Luminescent Cell Viability Assay); assay type: cell-based; details: Homo sapiens, 96 hours, Table I-10, BCR-ABL inhibitors
Procedure, shortened: (§1)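 Luminescent viability read-out (CellTiter-Meiluncell) after compound exposure for a specified time; IC50 determined. Seeding was done the day before dosing with serially diluted compound, final concentrations including 500 nM and 10 nM. Culture at 37°C, 5% CO2.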

EGFR = assay: Western blot, target protein degradation in H1975 Cell; assay type: cell-based, Human; details: substrate protein remaining %, treated at 500 nM and 50 nM, 24 hours
Method: (§2) Conventional Western blot assay was performed to evaluate the effects of the compounds of the present disclosure on the expression of target proteins in cells.
(§3) (1) Cell Seeding and Protein Harvesting: The selected cells were processed according to the cell seeding procedure and protein harvesting procedure in Table II-2. Table II-2 Cell Seeding and Protein Harvesting Procedures
(§4) (2) To the collected supernatant, 5X SDS sample loading buffer was added, followed by denaturation at 95°C for 5 minutes. The denatured samples were then separated by SDS-PAGE electrophoresis on a polyacrylamide gel. Proteins were transferred to a nitrocellulose membrane (0.45 µm NC membrane), blocked with blocking buffer at room temperature for 1 hour, and subjected to antibody incubation and development procedures according to the antibody manufacturer's instructions (Cell Signaling Technology).
(§5) Half-Maximal Degradation Concentration value (the drug concentration required for degrading proteins by 50%, abbreviated as DC50) reads method: comparing the grayscale values of Western blot bands from drug-treated samples with those from blank DMSO-treated controls, and identifying the drug concentration range at which the grayscale value is half that of the DMSO-treated control bands.
(§6) DC50 values can be calculated using ImageJ software to measure grayscale values of Western blot bands from drug-treated samples. The concentration-response curve is fitted to estimate the drug concentration corresponding to half the grayscale value.
(§7) Target protein remaining (%) refers to the percentage of target protein remaining in cells after treatment with protein degrader compounds.
(§8) Calculation method for target protein remaining (%): Use ImageJ software to measure grayscale values of Western blot bands from drug (protein degrader)-treated samples. The grayscale value of drug-treated bands is divided by that of internal control protein bands, and the resulting quotient is normalized to obtain the relative percentage of remaining target protein after protein degrader treatment. Target protein degradation rate(%) = 1−target protein remaining(%). [formula]

[1] = target: T1, human Cereblon WT GST-tagged protein (Homo sapiens, UniProt Q96SW2); assay: CRBN-binding affinity, HTRF (CEREBLON BINDING kit); details: for inhibition at 0.5 µM: read-out: Inhibition Rate at 0.5 µM (%); for inhibition at 2 µM: read-out: Inhibition Rate at 2 µM (%)
T1 construct: purchased CISBIO 64BDCRBNPEH
T1 sequence (Q96SW2 whole entry): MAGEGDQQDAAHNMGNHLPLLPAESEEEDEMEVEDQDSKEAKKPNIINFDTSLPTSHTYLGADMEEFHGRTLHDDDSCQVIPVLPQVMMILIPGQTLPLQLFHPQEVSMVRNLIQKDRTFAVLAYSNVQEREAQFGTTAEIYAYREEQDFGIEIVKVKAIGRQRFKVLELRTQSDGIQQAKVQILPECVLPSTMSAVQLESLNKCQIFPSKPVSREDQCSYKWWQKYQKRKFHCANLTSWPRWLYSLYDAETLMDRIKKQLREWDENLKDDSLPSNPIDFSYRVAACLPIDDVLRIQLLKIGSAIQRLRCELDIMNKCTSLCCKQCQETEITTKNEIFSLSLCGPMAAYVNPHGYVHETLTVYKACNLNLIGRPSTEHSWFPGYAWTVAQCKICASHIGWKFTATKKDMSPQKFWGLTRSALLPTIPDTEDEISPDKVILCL
Procedure, shortened: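 cpd (final 2 µM, 0.5 µM; diluent #9 1X) + GST-CRBN WT + thalidomide-Red/anti-GST Eu mix; HTRF readout. Blanks: diluent + PROTAC binding buffer + detection mix.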

TMD8 = assay: Tumor cell proliferation inhibition (CellTiter-Meiluncell Luminescent Cell Viability Assay); assay type: cell-based; details: Homo sapiens, 96 hours; for inhibition at 0.01 µM: 10 nM, read-out: Inhibition Rate at 10 nM (%); for inhibition at 0.5 µM: 500 nM, read-out: Inhibition Rate at 500 nM (%)
Procedure, shortened: as §1

RPMI-8226 = assay: as above; assay type: cell-based; details: Homo sapiens, 96 hours, Table I-3, EGFR inhibitors; for inhibition at 0.01 µM: 10 nM, read-out: Inhibition Rate at 10 nM (%); for inhibition at 0.5 µM: 500 nM, read-out: Inhibition Rate at 500 nM (%)
Procedure, shortened: (§9)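 Following overnight seeding, tumor cells received serial compound dilutions to final levels that included 10 nM and 500 nM. Viability was assessed by luminescence at the end of the specified exposure time. Cultures were kept at 37°C with 5% CO2.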

MV-4-11 = assay: as above; assay type: cell-based; details: Homo sapiens, 96 hours; for inhibition at 0.01 µM: MV4-11, 10 nM, read-out: Inhibition Rate at 10 nM (%); for inhibition at 0.5 µM: MV4-11, 500 nM, read-out: Inhibition Rate at 500 nM (%)
Procedure, shortened: as §9

FAK = target: T2, FAK (Homo sapiens, UniProt Q05397); assay: Western blot, target protein degradation in A549 Cell; assay type: cell-based; details: substrate protein remaining %, treated at 500 nM and 50 nM, 24 hours
T2 construct: endogenous in cells; host or cells: A549
T2 sequence (Q05397 whole entry): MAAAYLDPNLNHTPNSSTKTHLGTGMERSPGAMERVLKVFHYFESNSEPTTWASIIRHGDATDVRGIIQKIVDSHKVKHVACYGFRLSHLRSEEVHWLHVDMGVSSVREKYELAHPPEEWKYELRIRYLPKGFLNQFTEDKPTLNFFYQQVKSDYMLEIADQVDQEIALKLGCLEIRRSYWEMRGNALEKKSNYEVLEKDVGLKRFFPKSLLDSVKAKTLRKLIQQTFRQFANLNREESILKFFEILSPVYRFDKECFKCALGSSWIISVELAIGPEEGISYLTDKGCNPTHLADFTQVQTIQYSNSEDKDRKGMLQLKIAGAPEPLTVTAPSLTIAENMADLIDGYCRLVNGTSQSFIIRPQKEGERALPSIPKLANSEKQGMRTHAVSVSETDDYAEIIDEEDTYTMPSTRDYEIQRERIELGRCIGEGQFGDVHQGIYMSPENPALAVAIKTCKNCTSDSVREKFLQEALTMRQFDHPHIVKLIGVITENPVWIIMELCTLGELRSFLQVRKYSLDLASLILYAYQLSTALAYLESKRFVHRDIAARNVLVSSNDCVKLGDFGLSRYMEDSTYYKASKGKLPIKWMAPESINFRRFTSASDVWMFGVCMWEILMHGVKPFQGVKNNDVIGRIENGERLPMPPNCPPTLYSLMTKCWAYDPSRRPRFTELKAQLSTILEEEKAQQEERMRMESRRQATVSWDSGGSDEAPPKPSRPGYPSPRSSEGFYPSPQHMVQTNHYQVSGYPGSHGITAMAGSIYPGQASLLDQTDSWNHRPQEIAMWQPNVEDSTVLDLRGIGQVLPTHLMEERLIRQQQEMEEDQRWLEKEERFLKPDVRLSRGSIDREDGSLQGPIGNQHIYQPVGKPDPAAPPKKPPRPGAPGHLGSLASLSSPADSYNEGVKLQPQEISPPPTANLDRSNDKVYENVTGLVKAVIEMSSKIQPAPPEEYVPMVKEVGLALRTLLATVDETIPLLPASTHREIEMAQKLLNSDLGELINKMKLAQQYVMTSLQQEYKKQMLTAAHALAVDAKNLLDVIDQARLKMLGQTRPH
Method: as §2, §3, §4, §5, §6, §7, §8

MM.1S = assay: Tumor cell proliferation inhibition (CellTiter-Meiluncell Luminescent Cell Viability Assay); assay type: cell-based; details: Homo sapiens, MM1.S, MM.1S, 96 hours, Table I-12, FAK inhibitors; for inhibition at 0.01 µM: 10 nM, read-out: Inhibition Rate at 10 nM (%); for inhibition at 0.5 µM: 500 nM, read-out: Inhibition Rate at 500 nM (%)
Procedure, shortened: as §9

SW620 = assay: as above; assay type: cell-based; details: Homo sapiens, 96 hours; for inhibition at 0.01 µM: SW-620, 10 nM, read-out: Inhibition Rate at 10 nM (%); for inhibition at 0.5 µM: SW-620, 500 nM, read-out: Inhibition Rate at 500 nM (%)
Procedure, shortened: as §9

Cc1ccc(C(=O)Nc2ccc(CN3CCN(Cc4ccc5c(c4)C(=S)N(C4CCC(=O)NC4=O)C5)CC3)c(C(F)(F)F)c2)cc1C#Cc1cnc2cccnn12 (centres unmarked) [GT-09439, N-(4-((4-((2-(2,6-dioxopiperidin-3-yl)-3-thioxoisoindolin-5-yl)methyl)piperazin-1-yl)methyl)-3-(trifluoromethyl)phenyl)-3-(imidazo[1,2-b]pyridazin-3-ylethynyl)-4-methylbenzamide]
inhibition at 0.01 µM (CFPAC-1; 10 nM, read-out: Inhibition Rate at 10 nM (%)): 5 to 10%
inhibition at 0.5 µM (CFPAC-1; 500 nM, read-out: Inhibition Rate at 500 nM (%)): 60 to 70%

C=CC(=O)Nc1cc(Nc2nccc(-c3cn(C)c4ccccc34)n2)c(OC)cc1N(C)CCN(C)C [Osimertinib, reference compound]
Degradation of substrate protein EGFR (EGFR): No degradation

CC(C)(C)c1cnc(CSc2cnc(NC(=O)C3CCN(Cc4ccc5c(c4)CN(C4CCC(=O)NC4=O)C5=S)CC3)s2)o1 (centres unmarked) [GT-09435, N-(5-(((5-(tert-butyl)oxazol-2-yl)methyl)thio)thiazol-2-yl)-1-((2-(2,6-dioxopiperidin-3-yl)-1-thioxoisoindolin-5-yl)methyl)piperidine-4-carboxamide]
inhibition at 0.5 µM [1]: 40 to 53%
inhibition at 2 µM [1]: 80 to 100%
inhibition at 0.01 µM (TMD8; Table I-7, CDK9 inhibitors): 0 to 5%
inhibition at 0.5 µM (TMD8; Table I-7, CDK9 inhibitors): 70 to 80%

COC1CCN(c2nccc(Nc3cc4c(cn3)c(N3CCN(Cc5ccc6c(c5)C(=S)N(C5CCC(=O)NC5=O)C6)CC3)nn4C(C)C)n2)CC1 (centres unmarked) [GT-08763, 3-(6-((4-(1-isopropyl-6-((2-(4-methoxypiperidin-1-yl)pyrimidin-4-yl)amino)-1H-pyrazolo[4,3-c]pyridin-3-yl)piperazin-1-yl)methyl)-1-thioxoisoindolin-2-yl)piperidine-2,6-dione]
inhibition at 0.5 µM [1]: 30 to 40%
inhibition at 2 µM [1]: 80 to 100%
Degradation of substrate protein EGFR (EGFR): A (0% ≤ substrate protein remaining % ≤ 80%)
inhibition at 0.01 µM (RPMI-8226): 30 to 40%
inhibition at 0.5 µM (RPMI-8226): 50 to 60%
inhibition at 0.01 µM (MV-4-11; Table I-3, EGFR inhibitors): 30 to 40%
inhibition at 0.5 µM (MV-4-11; Table I-3, EGFR inhibitors): 50 to 60%

CN(c1cccc(CNc2nc(Nc3ccc(N4CCN(Cc5cccc6c5CN(C5CCC(=O)NC5=O)C6=S)CC4)cc3)ncc2C(F)(F)F)c1)S(C)(=O)=O (centres unmarked) [GT-08883, N-(3-(((2-((4-(4-((2-(2,6-dioxopiperidin-3-yl)-1-thioxoisoindolin-4-yl)methyl)piperazin-1-yl)phenyl)amino)-5-(trifluoromethyl)pyrimidin-4-yl)amino)methyl)phenyl) -N-methylmethanesulfonamide]
inhibition at 0.5 µM [1]: 40 to 53%
inhibition at 2 µM [1]: 53 to 60%
Degradation of substrate protein FAK (FAK): A (0% ≤ substrate protein remaining % ≤ 80%)
inhibition at 0.01 µM (MM.1S): 10 to 20%
inhibition at 0.5 µM (MM.1S): 40 to 50%
inhibition at 0.01 µM (SW620; Table I-12, FAK inhibitors): 30 to 40%
inhibition at 0.5 µM (SW620; Table I-12, FAK inhibitors): 40 to 50%
inhibition at 0.01 µM (MV-4-11; Table I-12, FAK inhibitors): 20 to 30%
inhibition at 0.5 µM (MV-4-11; Table I-12, FAK inhibitors): 70 to 80%

CN(c1nccnc1CNc1nc(Nc2ccc(N3CCN(Cc4ccc5c(c4)CN(C4CCC(=O)NC4=O)C5=S)CC3)cc2)ncc1C(F)(F)F)S(C)(=O)=O (centres unmarked) [GT-08779, N-(3-(((2-((4-(4-((2-(2,6-dioxopiperidin-3-yl)-1-thioxoisoindolin-5-yl)methyl)piperazin-1-yl)phenyl)amino)-5-(trifluoromethyl)pyrimidin-4-yl)amino)methyl)pyrazin-2-yl)-N-methylmethanesulfonamide]
inhibition at 0.5 µM [1]: 30 to 40%
inhibition at 2 µM [1]: 80 to 100%
Degradation of substrate protein FAK (FAK): A (0% ≤ substrate protein remaining % ≤ 80%)
inhibition at 0.01 µM (MV-4-11; Table I-12, FAK inhibitors): 10 to 20%
inhibition at 0.5 µM (MV-4-11; Table I-12, FAK inhibitors): 70 to 80%

COc1cc(N2CCC(N(C)Cc3ccc4c(c3)C(=S)N(C3CCC(=O)NC3=O)C4)CC2)c(C)cc1Nc1ncc(Br)c(Nc2ccc3nccnc3c2P(C)(C)=O)n1 (centres unmarked) [GT-08761, 3-(6-(((1-(4-((5-bromo-4-((5-(dimethylphosphoryl)quinoxalin-6-yl)amino)pyrimidin-2-yl)amino)-5-methoxy-2-methylphenyl)piperidin-4-yl)(methyl)amino)methyl)-1-thioxoisoindolin-2-yl)piperidine-2,6-dione]
inhibition at 0.5 µM [1]: 60 to 80%
inhibition at 2 µM [1]: 80 to 100%
Degradation of substrate protein EGFR (EGFR): A (0% ≤ substrate protein remaining % ≤ 80%)
inhibition at 0.01 µM (RPMI-8226): 20 to 30%
inhibition at 0.5 µM (RPMI-8226): 40 to 50%
inhibition at 0.01 µM (MV-4-11; Table I-3, EGFR inhibitors): 5 to 10%
inhibition at 0.5 µM (MV-4-11; Table I-3, EGFR inhibitors): 60 to 70%

C=CC(=O)N1CCC[C@@H](n2nc(-c3ccc(Oc4ccccc4)cc3)c3c(N)ncnc32)C1 [ibrutinib, Ibrutinib, reference compound]
inhibition at 0.5 µM [1]: 0 to 10%
inhibition at 2 µM [1]: 10 to 20%
inhibition at 0.01 µM (SW620; Table I-4, BTK inhibitors): -5 to 0%
inhibition at 0.5 µM (SW620; Table I-4, BTK inhibitors): 0 to 5%
inhibition at 0.01 µM (TMD8; Table I-4, BTK inhibitors): -5 to 0%
inhibition at 0.5 µM (TMD8; Table I-4, BTK inhibitors): 30 to 40%

Nc1ncnc2c1c(-c1ccc(Oc3ccccc3)cc1)nn2C1CCN(Cc2ccc3c(c2)CN(C2CCC(=O)NC2=O)C3=S)CC1 (centres unmarked) [GT-09436, 3-(5-((4-(4-amino-3-(4-phenoxyphenyl)-1H-pyrazolo[3,4-d]pyrimidin-1-yl)piperidin-1-yl)methyl)-1-thioxoisoindolin-2-yl)piperidine-2,6-dione]
inhibition at 0.5 µM [1]: 40 to 53%
inhibition at 2 µM [1]: 80 to 100%
inhibition at 0.01 µM (SW620; Table I-4, BTK inhibitors): 70 to 80%
inhibition at 0.5 µM (SW620; Table I-4, BTK inhibitors): 80 to 100%
inhibition at 0.01 µM (TMD8; Table I-4, BTK inhibitors): 15 to 20%
inhibition at 0.5 µM (TMD8; Table I-4, BTK inhibitors): 80 to 100%

CS(=O)(=O)c1cccc(CNc2nc(Nc3ccc(N4CCN(Cc5ccc6c(c5)CN(C5CCC(=O)NC5=O)C6=S)CC4)cc3)ncc2C(F)(F)F)c1 (centres unmarked) [GT-08780, 3-(5-((4-(4-((4-((3-(methylsulfonyl)benzyl)amino)-5-(trifluoromethyl)pyrimidin-2-yl)amino)phenyl)piperazin-1-yl)methyl)-1-thioxoisoindolin-2-yl)piperidine-2,6-dione]
Degradation of substrate protein FAK (FAK): A (0% ≤ substrate protein remaining % ≤ 80%)
inhibition at 0.01 µM (MM.1S): 20 to 30%
inhibition at 0.5 µM (MM.1S): 40 to 50%
inhibition at 0.01 µM (SW620; Table I-12, FAK inhibitors): 10 to 20%
inhibition at 0.5 µM (SW620; Table I-12, FAK inhibitors): 40 to 50%
inhibition at 0.01 µM (MV-4-11; Table I-12, FAK inhibitors): 20 to 30%
inhibition at 0.5 µM (MV-4-11; Table I-12, FAK inhibitors): 70 to 80%

CN(c1nccnc1CNc1nc(Nc2ccc(N3CCN(Cc4cccc5c4CN(C4CCC(=O)NC4=O)C5=S)CC3)cc2)ncc1C(F)(F)F)S(C)(=O)=O (centres unmarked) [GT-08783, N-(3-(((2-((4-(4-((2-(2,6-dioxopiperidin-3-yl)-1-thioxoisoindolin-4-yl)methyl)piperazin-1-yl)phenyl)amino)-5-(trifluoromethyl)pyrimidin-4-yl)amino)methyl)pyrazin-2-yl)-N-methylmethanesulfonamide]
inhibition at 0.5 µM [1]: 40 to 53%
inhibition at 2 µM [1]: 60 to 80%
Degradation of substrate protein FAK (FAK): A (0% ≤ substrate protein remaining % ≤ 80%)
inhibition at 0.01 µM (MV-4-11; Table I-12, FAK inhibitors): 20 to 30%
inhibition at 0.5 µM (MV-4-11; Table I-12, FAK inhibitors): 70 to 80%
